# Experimental data reported in paper PMC3986099, “Development of a Radioiodinated Triazolopyrimidine Probe for Nuclear Medical Imaging of Fatty Acid Binding Protein 4” (PLoS ONE, 2014).
# What was measured:
# [1] = Partition coefficient, 1-octanol/phosphate buffer pH 7.4; type: physicochemical; conditions: 1-octanol/phosphate buffer (PBS(-))
# Experimental: Experimental determination of the [^125I]TAP1 partition coefficient was performed with 1-octanol and phosphate buffer at pH 7.4. The two phases were pre-saturated, and a mixture solution of 3.0 ml 1-octanol and 3.0 ml PBS (-) was added to a tube containing 0.02 ml [^125I]TAP1 in PBS (-) (0.024 MBq, 5% ethanol, v/v). The test tube was vortexed and centrifuged (1,000×g, 5 min). Aliquots from the 1-octanol and buffer phases (0.5 ml) were counted with a well-type γ-counter. This procedure was repeated three times. The partition coefficient was calculated from the ratio of radioactivity in the organic and aqueous layers.
# [2] = In vitro stability in saline and plasma (RP-HPLC); type: in vitro ADME, ddY mice; conditions: 2 hr, 37 °C
# Experimental: The in vitro stability of [^125I]TAP1 in plasma was measured using plasma samples taken from ddY mice (males, 7 weeks old). [^125I]TAP1 (0.07 MBq, 0.01 ml) was incubated with 0.1 ml plasma at 37 °C for 2 hr. After addition of 0.2 ml methanol and vortexing, the mixture was centrifuged (4,160×g, 10 min). The supernatant was filtered with a low protein binding hydrophilic PTFE membrane (Millex-LH MILLIPORE), and the filtrate was analyzed by RP-HPLC using a Cosmosil C18 column with an isocratic solvent of H2O (0.1% TFA, v/v)/acetonitrile (0.1% TFA, v/v) (37/63) at a flow rate of 1.5 ml/min.
# [3] = Serum protein binding by rapid equilibrium dialysis; type: in vitro ADME; conditions: mouse plasma, 37 °C, 4 hr
# Experimental: The serum protein binding ratio of [^125I]TAP1 was measured using rapid equilibrium dialysis (RED) devices (Thermo Fisher Scientific K.K.) following the manufacturer's procedures. Briefly, [^125I]TAP1 (0.02 MBq, 0.02 ml) and mouse plasma (0.3 ml) were mixed and placed to the sample chamber and 0.5 ml PBS (-) was placed in the RED device buffer chamber. After incubation at 37 °C for 4 hr, 0.05 ml of the samples were obtained from each chamber. The binding ratios were calculated as: (sample chamber radioactivity)-(buffer chamber radioactivity)/(sample chamber radioactivity) x 100 (%).
# C6 tumors = test: Biodistribution in C6 bearing mice; type: in vivo, Balb/c nu-nu mice; conditions: for Blood / Heart / Intestine / Kidney / Liver / Lung / Muscle / Pancreas / Spleen / Stomach / Tumor / T/B ratio / T/M ratio: C6 bearing mice, i.v.; for T/B ratio: tumor to blood; for T/M ratio: tumor to muscle
# Experimental: C6 cells were suspended in PBS(-) followed by subcutaneous inoculation into the right hind legs of Balb/c nu-nu mice (5×10^6 cells/100 µL).
# A saline solution (5% ethanol, v/v) of [^125I]TAP1 (0.06 MBq) was injected intravenously into the tail vein of C6 cell implantation model Balb/c nu-nu mice (males, 8 weeks old). The mice were sacrificed at various post-injection time points and organs, including tumor tissues, were removed. The weight and radioactivity of the organs were measured as mentioned above. Several model mice were sacrificed 3 hr after the injection by transcardial perfusion of saline (20 ml) under anesthesia with chloral hydrate. The weight and radioactivity of the removed organs, including tumor tissues, were measured as mentioned above.
structure (smiles),measurement,setting,value
O=c1cc(COc2cccc([125I])c2)[nH]c2nc(-c3ccccc3)nn12 [[^125I]TAP1],logP,[1],2.7 ± 0.1
same,stability in mouse plasma,[2]; mouse plasma,no radioactive degradation products were observed
same,stability in saline,[2]; saline,no radioactive degradation products were observed
same,percentage bound to serum proteins,[3],more than 99%
same,radioactivity accumulation in tumors (peak),C6 tumors; 15 min after injection,2.26±0.45 %ID/g
same,radioactivity accumulation in C6 tumors,C6 tumors; 3 hr after injection,1.37±0.24 % dose/g
same,"tumor accumulation, decapitation","C6 tumors; 3 hr after injection, sacrificed by decapitation",0.85±0.18 %ID/g
same,"tumor accumulation, transcardial perfusion","C6 tumors; 3 hr after injection, sacrificed by transcardial perfusion",0.96±0.18 %ID/g
same,tumor to muscle ratio,C6 tumors; 3 hr after probe injection,3.6
same,Blood,C6 tumors; 5 min,10.40±2.34 % injected dose per gram
same,Heart,C6 tumors; 5 min,3.36±0.64 % injected dose per gram
same,Intestine,C6 tumors; 5 min,2.35±0.34 % injected dose per gram
same,Kidney,C6 tumors; 5 min,29.66±2.24 % injected dose per gram
same,Liver,C6 tumors; 5 min,46.01±5.99 % injected dose per gram
same,Lung,C6 tumors; 5 min,6.76±1.12 % injected dose per gram
same,Muscle,C6 tumors; 5 min,1.05±0.33 % injected dose per gram
same,Pancreas,C6 tumors; 5 min,2.55±0.31 % injected dose per gram
same,Spleen,C6 tumors; 5 min,2.20± 0.44 % injected dose per gram
same,Stomach,C6 tumors; 5 min,0.42±0.16 % injected dose per organ
same,Tumor,C6 tumors; 5 min,1.94±0.44 % injected dose per gram
same,Blood,C6 tumors; 15 min,6.60±0.61 % injected dose per gram
same,Heart,C6 tumors; 15 min,2.45±0.41 % injected dose per gram
same,Intestine,C6 tumors; 15 min,5.08±0.95 % injected dose per gram
same,Kidney,C6 tumors; 15 min,62.82±9.70 % injected dose per gram
same,Liver,C6 tumors; 15 min,37.58±2.88 % injected dose per gram
same,Lung,C6 tumors; 15 min,4.26±0.19 % injected dose per gram
same,Muscle,C6 tumors; 15 min,0.74±0.15 % injected dose per gram
same,Pancreas,C6 tumors; 15 min,1.20±0.20 % injected dose per gram
same,Spleen,C6 tumors; 15 min,1.09±0.10 % injected dose per gram
same,Stomach,C6 tumors; 15 min,1.02±0.38 % injected dose per organ
same,Tumor,C6 tumors; 15 min,2.26±0.45 % injected dose per gram
same,Blood,C6 tumors; 30 min,4.74±1.17 % injected dose per gram
same,Heart,C6 tumors; 30 min,1.76±0.40 % injected dose per gram
same,Intestine,C6 tumors; 30 min,7.97±1.32 % injected dose per gram
same,Kidney,C6 tumors; 30 min,77.74±8.14 % injected dose per gram
same,Liver,C6 tumors; 30 min,42.20±1.51 % injected dose per gram
same,Lung,C6 tumors; 30 min,3.16±1.07 % injected dose per gram
same,Muscle,C6 tumors; 30 min,0.57±0.12 % injected dose per gram
same,Pancreas,C6 tumors; 30 min,0.88±0.13 % injected dose per gram
same,Spleen,C6 tumors; 30 min,0.84±0.14 % injected dose per gram
same,Stomach,C6 tumors; 30 min,0.60±0.13 % injected dose per organ
same,Tumor,C6 tumors; 30 min,1.63±0.38 % injected dose per gram
same,Blood,C6 tumors; 60 min,3.25±0.66 % injected dose per gram
same,Heart,C6 tumors; 60 min,1.12±0.17 % injected dose per gram
same,Intestine,C6 tumors; 60 min,11.59±0.20 % injected dose per gram
same,Kidney,C6 tumors; 60 min,71.54±8.25 % injected dose per gram
same,Liver,C6 tumors; 60 min,30.46±3.28 % injected dose per gram
same,Lung,C6 tumors; 60 min,2.19±0.52 % injected dose per gram
same,Muscle,C6 tumors; 60 min,0.37±0.05 % injected dose per gram
same,Pancreas,C6 tumors; 60 min,0.63±0.08 % injected dose per gram
same,Spleen,C6 tumors; 60 min,0.65±0.08 % injected dose per gram
same,Stomach,C6 tumors; 60 min,0.73±0.40 % injected dose per organ
same,Tumor,C6 tumors; 60 min,1.09±0.05 % injected dose per gram
same,Blood,C6 tumors; 180 min,3.29±0.40 % injected dose per gram
same,Heart,C6 tumors; 180 min,1.14±0.04 % injected dose per gram
same,Intestine,C6 tumors; 180 min,15.76±3.03 % injected dose per gram
same,Kidney,C6 tumors; 180 min,73.44±4.42 % injected dose per gram
same,Liver,C6 tumors; 180 min,33.97±4.98 % injected dose per gram
same,Lung,C6 tumors; 180 min,1.88±0.25 % injected dose per gram
same,Muscle,C6 tumors; 180 min,0.39±0.09 % injected dose per gram
same,Pancreas,C6 tumors; 180 min,0.70±0.13 % injected dose per gram
same,Spleen,C6 tumors; 180 min,0.82±0.11 % injected dose per gram
same,Stomach,C6 tumors; 180 min,0.89±0.40 % injected dose per organ
same,Tumor,C6 tumors; 180 min,1.37±0.24 % injected dose per gram
same,T/B ratio,C6 tumors; 5 min,0.19±0.04
same,T/B ratio,C6 tumors; 15 min,0.34±0.06
same,T/B ratio,C6 tumors; 30 min,0.35±0.03
same,T/B ratio,C6 tumors; 60 min,0.34±0.05
same,T/B ratio,C6 tumors; 180 min,0.42±0.04
same,T/M ratio,C6 tumors; 5 min,1.94±0.52
same,T/M ratio,C6 tumors; 15 min,3.08±0.10
same,T/M ratio,C6 tumors; 30 min,2.96±0.73
same,T/M ratio,C6 tumors; 60 min,2.95±0.41
same,T/M ratio,C6 tumors; 180 min,3.60±0.98
